Assays:
IICB^Glc [1] = target: T1, IICB^Glc (Escherichia coli, UniProt P69786); test: nanoDSF thermal shift (Tycho NT.[…]); assay type: binding; settings: 10 mM ligand, 4 µM protein, 20 mM HEPES-NaOH pH 8.0, 150 mM NaCl, 5 mM β-ME, 0.02% DDM
T1 construct: gene ptsG; full-length wild type with decahistidine tag; overexpressed in E. coli BW25113 delta-arcB delta-ptsG; homodimer; purified in DDM (nanoDSF) or in MSP1E3D1/POPC nanodiscs (cryo-EM, IIB domain not resolved)

IICB^Glc [2] = target: T1, IICB^Glc; test: nanoDSF thermal shift (Tycho NT.[…]); assay type: binding; settings: 10 mM ligand, 4 µM protein, 20 mM HEPES-NaOH pH 8.0, 150 mM NaCl, 5 mM β-ME, 0.02% DDM; remark: listed apart in the source

T1 sequence (P69786 whole entry, the tested form may be a part): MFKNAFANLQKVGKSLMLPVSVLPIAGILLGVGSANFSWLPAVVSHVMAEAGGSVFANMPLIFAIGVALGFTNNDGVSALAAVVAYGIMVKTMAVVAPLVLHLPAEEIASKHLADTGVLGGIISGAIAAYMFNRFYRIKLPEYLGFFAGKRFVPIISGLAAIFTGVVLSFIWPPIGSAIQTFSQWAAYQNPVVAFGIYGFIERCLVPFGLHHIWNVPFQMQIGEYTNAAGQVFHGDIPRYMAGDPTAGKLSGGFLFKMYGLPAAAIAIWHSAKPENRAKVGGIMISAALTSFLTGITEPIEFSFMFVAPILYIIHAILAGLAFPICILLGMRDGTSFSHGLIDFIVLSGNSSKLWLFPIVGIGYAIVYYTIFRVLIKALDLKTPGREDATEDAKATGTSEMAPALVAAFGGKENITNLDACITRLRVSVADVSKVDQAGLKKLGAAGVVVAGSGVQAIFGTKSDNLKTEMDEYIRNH

| Compound | ΔTi (IICB^Glc [1]) | ΔTi (IICB^Glc [2]) |
| --- | --- | --- |
| COC1O[C@H](CO)[C@@H](O)[C@H](O)[C@H]1O (stereo partly shown) [1-O-methyl-glucose] | 1-deoxy-glucose and 1-O-methyl-glucose bound best | – |
| OC[C@H]1OC[C@H](O)[C@@H](O)[C@@H]1O [1-deoxy-glucose] | 1-deoxy-glucose and 1-O-methyl-glucose bound best | – |
| OC[C@H]1OC(O)[C@H](O)[C@@H](O)[C@@H]1O (stereo partly drawn) [D-glucose] | – | ~ almost 10 °C |
| OC[C@H]1O[C@H](O[C@H]2[C@H](O)[C@@H](O)C(O)O[C@@H]2CO)[C@H](O)[C@@H](O)[C@@H]1O (stereo partly drawn) [D-maltose] | induced a slight stabilization of IICB^Glc | – |

Reference: paper PMC11393339, “Structure and mechanism of a phosphotransferase system glucose transporter” (Nature Communications, 2024)
